Test results: ChEMBL document CHEMBL1687806, “Susceptibility of treatment-naive hepatitis C virus (HCV) clinical isolates to HCV protease inhibitors” (Antimicrob Agents Chemother, 2010)

Experiments:
[1] = test system: Hepatitis C virus; test: Antiviral activity against HCV1b Con1 harboring NS3 protease gene infected in human Huh7/Lunet cells assessed as inhibition of viral replication after 3 days by luciferase based transient-transfection assay; type: functional, organism-based, Hepacivirus hominis; details: Con1, Huh-7, 72 h
[2] = test system: Hepatitis C virus; test: Ratio of EC50 for wild type HCV1b harboring NS3 protease gene to EC50 for HCV1b B13 harboring NS3 protease R26K, V46I, Q80L mutant; type: functional, Hepacivirus hominis, genotype 1b
[3] = test system: Hepatitis C virus; test: Ratio of EC50 for wild type HCV1b harboring NS3 protease gene to EC50 for HCV1b A25 harboring NS3 protease T40A, T54S, V55I, I64L, P67S, Q80K, Q88H, S90A, L153I mutant; type: functional, Hepacivirus hominis, genotype 1b
[4] = test system: Hepatitis C virus; test: Ratio of EC50 for wild type HCV1b harboring NS3 protease gene to EC50 for HCV1b B10 harboring NS3 protease S7A, R26K, V48I, T54S mutant; type: functional, Hepacivirus hominis, genotype 1b
[5] = test system: Hepatitis C virus; test: Antiviral activity against HCV1b harboring Q80Q polymorphism in NS3 protease gene infected in human Huh7/Lunet cells assessed as inhibition of viral replication after 3 days by luciferase based transient-transfection assay; type: functional, organism-based, Hepacivirus hominis; details: genotype 1b, Huh-7, 72 h
[6] = test system: Hepatitis C virus; test: Antiviral activity against HCV1b harboring Q80K polymorphism in NS3 protease gene infected in human Huh7/Lunet cells assessed as inhibition of viral replication after 3 days by luciferase based transient-transfection assay; type: functional, organism-based, Hepacivirus hominis; details: genotype 1b, Huh-7, 72 h
[7] = test system: Hepatitis C virus; test: Ratio of EC50 for HCV1b harboring Q80K polymorphism in NS3 protease gene to EC50 for HCV1b harboring Q80Q polymorphism in NS3 protease gene; type: functional, Hepacivirus hominis, genotype 1b
[8] = test system: Hepatitis C virus; test: Ratio of EC50 for wild type HCV1b harboring NS3 protease gene to EC50 for HCV1b harboring NS3 protease T54S mutant; type: functional, Hepacivirus hominis, genotype 1b
[9] = test system: Hepatitis C virus; test: Ratio of EC50 for wild type HCV1b harboring NS3 protease gene to EC50 for HCV1b harboring NS3 protease Q80K mutant; type: functional, Hepacivirus hominis, genotype 1b
[10] = test system: Hepatitis C virus; test: Ratio of EC50 for wild type HCV1b harboring NS3 protease gene to EC50 for HCV1b harboring NS3 protease Q80K, T54S mutant; type: functional, Hepacivirus hominis, genotype 1b

CCCCCOc1ccc(NC(=S)NC(=O)c2cccnc2)cc1C(F)(F)F
EC50 [1]: 28.2 nM

CC(C)(C)NC(=O)N[C@H](C(=O)N1C[C@H]2[C@@H]([C@H]1C(=O)NC(CC1CCC1)C(=O)C(N)=O)C2(C)C)C(C)(C)C (stereo partly specified) [BOCEPREVIR]
Ratio EC50 [2]: 1 | EC50 [1]: 276 nM | Ratio EC50 [3]: 1.7 | Ratio EC50 [4]: 9 | EC50 [5]: 201 nM | EC50 [6]: 91.5 nM | Ratio EC50 [7]: 0.4 | Ratio EC50 [8]: 4.7 | Ratio EC50 [9]: 0.9 | Ratio EC50 [10]: 1.7

CC(C)(C)OC(=O)N[C@H]1CCCCC/C=C\[C@@H]2C[C@@]2(C(=O)NS(=O)(=O)C2CC2)NC(=O)[C@@H]2C[C@@H](OC(=O)N3Cc4cccc(F)c4C3)CN2C1=O [DANOPREVIR]
Ratio EC50 [2]: 1.7 | EC50 [1]: 0.6 nM | Ratio EC50 [3]: 2.7 | Ratio EC50 [4]: 1.2 | EC50 [5]: 0.25 nM | EC50 [6]: 0.62 nM | Ratio EC50 [7]: 1.7 | Ratio EC50 [8]: 1 | Ratio EC50 [9]: 6.3 | Ratio EC50 [10]: 5.3

COc1ccc2c(O[C@@H]3C[C@H]4C(=O)N[C@]5(C(=O)NS(=O)(=O)C6CC6)C[C@H]5/C=C\CCCCN(C)C(=O)[C@@H]4C3)cc(-c3nc(C(C)C)cs3)nc2c1C [SIMEPREVIR]
Ratio EC50 [2]: 1 | EC50 [1]: 3.3 nM | Ratio EC50 [3]: 10.8 | Ratio EC50 [4]: 0.8 | EC50 [5]: 2.7 nM | EC50 [6]: 20.1 nM | Ratio EC50 [7]: 7.5 | Ratio EC50 [8]: 0.7 | Ratio EC50 [9]: 10.9 | Ratio EC50 [10]: 7.3

CCC[C@H](NC(=O)[C@@H]1[C@H]2CCC[C@H]2CN1C(=O)[C@@H](NC(=O)[C@@H](NC(=O)c1cnccn1)C1CCCCC1)C(C)(C)C)C(=O)C(=O)NC1CC1 [TELAPREVIR]
Ratio EC50 [2]: 1 | EC50 [1]: 377 nM | Ratio EC50 [3]: 1 | Ratio EC50 [4]: 6.2 | EC50 [5]: 176 nM | EC50 [6]: 72 nM | Ratio EC50 [7]: 0.5 | Ratio EC50 [8]: 5.6 | Ratio EC50 [9]: 1 | Ratio EC50 [10]: 2.3

CC[C@@H]1C[C@]1(NC(=O)[C@@H]1C[C@@H]2CN1C(=O)[C@H](C(C)(C)C)NC(=O)OCC(C)(C)CCCCc1cccc3c1CN(C3)C(=O)O2)C(=O)NS(=O)(=O)C1CC1 [VANIPREVIR]
Ratio EC50 [2]: 1.5 | EC50 [1]: 0.7 nM | Ratio EC50 [3]: 2.2 | Ratio EC50 [4]: 1.2 | EC50 [5]: 0.27 nM | EC50 [6]: 0.41 nM | Ratio EC50 [7]: 1.5 | Ratio EC50 [8]: 0.5 | Ratio EC50 [9]: 6.6 | Ratio EC50 [10]: 3.7
